In patent US7563813B2, “Iminothiazolidinone derivatives as SFRP-1 antagonists” (Wyeth, priority 2005, dated 2009):

Biological target: T1, hSFRP-1 (Homo sapiens, UniProt Q8N474)
T1 construct: expressed in transfected cells; host or cells: U2OS osteosarcoma cells (ATCC, HTB 96), transient co-transfection with Wnt 3, Wnt3A or Wnt 1, 16x TCF-tk-Luciferase reporter and CMV-beta-gal
T1 sequence (Q8N474 32-314): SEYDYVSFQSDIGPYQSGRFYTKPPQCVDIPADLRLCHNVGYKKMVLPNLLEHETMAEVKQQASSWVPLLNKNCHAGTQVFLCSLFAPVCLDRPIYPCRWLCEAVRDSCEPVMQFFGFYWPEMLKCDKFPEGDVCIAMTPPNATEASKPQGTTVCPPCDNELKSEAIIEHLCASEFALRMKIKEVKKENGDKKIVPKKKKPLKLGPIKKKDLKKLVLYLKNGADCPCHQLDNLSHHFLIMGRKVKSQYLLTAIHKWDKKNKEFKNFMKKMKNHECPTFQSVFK
Test: Cell-Based Assay for In Vitro Measurement of SFRP-1/SARP2 Antagonist Activity (U2OS cells, 16x TCF-tk-Luciferase reporter, Wnt + hSFRP-1 co-transfection)
Settings: initial single dose screening at 10 μM; for fold induction at 10 µM: luciferase reporter activity, fold induction over SFRP-1 control; for Ratio: ratio not defined
Experimental: Cell-Based Assay for In Vitro Measurement of SFRP-1/SARP2 Antagonist Activity
The following cell-based assay can be used to identify inhibitors of SFRP-1.
The osteosarcoma cell line, U2OS (ATCC, HTB 96), was passaged twice a week with growth medium (McCoy's SA medium containing 10% (v/v) fetal calf serum, 2 mM GlutaMAX-1, and 1% (v/v) Penicillin-Streptomycin). The cells were maintained in vented flasks at 37° C. inside a 5% CO2/95% humidified air incubator. One day prior to transfection, the cells were plated with growth medium at 25,000 cells/well into 96-well plates and incubated at 37° C. overnight.
The growth medium was removed, and the cells were washed once with OPTIMEM I (Gibco-BRL) medium (100 μl/well) to remove the serum and antibiotics. The wash medium was removed, and the cells were re-fed with OPTI-MEM I medium (100 μl/well). For each well of cells to be transfected, the following DNA's were diluted together in 25 μl OPTI-MEM I medium: 0.1 μg 16× TCF-tk-Luciferase reporter, 0.02 μg Wnt 3, Wnt3A, Wnt 1 or empty vector (Upstate Biotechnology), 0.075 μg hSFRP-1 or empty vector (pcDNA3.1, Invitrogen), and 0.025 μg CMV-®gal (Clonetech). For each well of cells to be transfected, 1 μl of Lipofectamine 2000 reagent (Invitrogen) was diluted in 25 μl OPTI-MEM I medium and incubated at room temperature for 5 minutes. The diluted DNA's were then combined with the diluted Lipofectamine 2000 (LF2000), and the mixture was incubated at room temperature for 20 minutes. Fifty μl of the DNA-LF 2000 mixture was added to each well, and the plate(s) were incubated at 37° C. in a 5% CO2/95% humidified air incubator for 4 hours. The cells were washed once with 150 μl/well of experimental medium (phenol red-free RPMI Medium 1640 containing 2% fetal bovine serum, 2 mM GlutaMAX-1, and 1% Penicillin-Streptomycin). Finally, the cells were treated overnight at 37° C. with 200 μl/well of experimental medium containing either vehicle (typically DMSO) or diluted compound in replicates of 8 wells/compound.
Initial single dose screening of test compounds was done at 10 μM.
Dose-response experiments were initially performed with the compounds in log increases from 1-10,000 nM. From these dose-response curves, EC50 values were generated.
After treatment, the cells were washed twice with 150 μl/well of PBS without calcium or magnesium and were lysed with 50 μl/well of 1× cell culture lysis reagent (Promega Corporation) on a shaker at room temperature for 30 minutes. Thirty μl aliquots of the cell lysates were transferred to 96-well luminometer plates, and luciferase activity was measured in a MicroLumat PLUS luminometer (EG&G Berthold), or a Victor (PerkinElmer Life Sciences) using […] of luciferase substrate (Promega Corporation). Following the injection of substrate, luciferase activity was measured for 10 seconds after a 1.6 second delay. Similarly, 10 μl aliquots of the cell lysates were transferred to separate 96-well luminometer plates, and 50 μl of Galacton chemiluminescent substrate (Tropix) was added to each well. The plates were covered and incubated on a rotary shaker at room temperature for one hour. ®gal activity was measured in a MicroLumat PLUS luminometer or Victor using 100 μl/well of Light Emission Accelerator (Tropix). Following the injection of the accelerator, ®gal activity was measured for 10 seconds after a 1.6 second delay. The luciferase and ®gal activity data were transferred from the luminometer to a PC and analyzed using the SAS/Excel program. After the luciferase activity was normalized to ®gal, the SAS/Excel program was used to determine the mean and standard deviation of each treatment, to analyze the data for statistical significance, and to determine EC50 values.
As an alternative to co-transfection in a 96 well plate, the U2OS cells were transfected in T225 flasks and the transfected cells were frozen. The frozen cells were thawed and plated on a 96 well plate and the assay was carried out as detailed above. […]

fold induction at 10 µM	Ratio	Structure (SMILES)
0.9	0.9	COC(=O)c1cc(-c2ccccc2)sc1NC(=O)CC1SC(=N)NC1=O (stereo not shown) [Example 56, methyl 2-{[(2-imino-4-oxo-1,3-thiazolidin-5-yl)acetyl]amino}-5-phenylthiophene-3-carboxylate]
0.9	0.8	COC(=O)c1cc(-c2ccc(Cl)cc2)sc1NC(=O)CC1SC(=N)NC1=O (stereo not shown) [Example 57, methyl 5-(4-chlorophenyl)-2-{[(2-imino-4-oxo-1,3-thiazolidin-5-yl)acetyl]amino}thiophene-3-carboxylate]
0.7	0.7	CCOC(=O)c1c(NC(=O)CC2SC(=N)NC2=O)sc(-c2ccccc2)c1C (stereo not shown) [Example 58, ethyl 2-{[(2-imino-4-oxo-1,3-thiazolidin-5-yl)acetyl]amino}-4-methyl-5-phenylthiophene-3-carboxylate]
1.1	1.4	CCOC(=O)c1c(NC(=O)CC2SC(=N)NC2=O)sc(Br)c1CBr (stereo not shown) [Example 59, Ethyl 5-bromo-4-(bromomethyl)-2-{[(2-imino-4-oxo-1,3-thiazolidin-5-yl)acetyl]amino}thiophene-3-carboxylate]
2.7	2.4	CCOC(=O)c1c(NC(=O)CC2SC(=N)NC2=O)sc(Br)c1CNc1ccccc1 (stereo not shown) [Example 60, Ethyl 4-(anilinomethyl)-5-bromo-2-{[(2-imino-4-oxo-1,3-thiazolidin-5-yl)acetyl]amino}thiophene-3-carboxylate]
0.7	1.0	CCOC(=O)c1c(NC(=O)CC2SC(=N)NC2=O)sc(Br)c1CN(C)c1ccc(Cl)cc1 (stereo not shown) [Example 61, ethyl 5-bromo-4-{[(4-chlorophenyl)(methyl)amino]methyl}-2-{[(2-imino-4-oxo-1,3-thiazolidin-5-yl)acetyl]amino}thiophene-3-carboxylate]
2	2.2	CCOC(=O)c1c(NC(=O)CC2SC(=N)NC2=O)sc(Br)c1CNc1ccc(F)cc1 (stereo not shown) [Example 62, ethyl 5-bromo-4-{[(4-fluorophenyl)amino]methyl}-2-{[(2-imino-4-oxo-1,3-thiazolidin-5-yl)acetyl]amino}thiophene-3-carboxylate]
1.5	1.1	CCOC(=O)c1c(NC(=O)CC2SC(=N)NC2=O)sc(Br)c1CNC1CCCC1 (stereo not shown) [Example 63, ethyl 5-bromo-4-[(cyclopentylamino)methyl]-2-{[(2-imino-4-oxo-1,3-thiazolidin-5-yl)acetyl]amino}thiophene-3-carboxylate]
